Earlier results on one compound are cited in patent US20230107398A1, “IMMEDIATE RELEASE FORMULATIONS OF d-LYSERGIC ACID DI[…] THERAPEUTIC APPLICATIONS” (Mind Medicine, Inc., priority 2021, published 2023).

For this series the following is noted: room temperature.

Turning to `CCN(CC)C(=O)[C@@H]1C=C2c3cccc4[nH]cc(c34)C[C@H]2N(C)C1` [LSD, 9,10-didehydro-N,N-diethyl-6-methylergoline-8β-carboxamide], the “Stability in oral solution” value is “not stable”.
